Measured values as given in US12152038B2, “Vasopressin receptor antagonists and products and methods related thereto” (Neumora Therapeutics, Inc., priority 2017, dated 2024).
Read-outs that look alike come from different tables or passages of the source.

Assays:
[1] = biological target: T1, human Arginine Vasopressin Receptor 1a (AVPR1a) (Homo sapiens, UniProt P37288); experiment: Vasopressin V1a receptor antagonist assay (FLIPR calcium, CHO-AVPR1a cells); type: cell-based
T1 construct: expressed in transfected cells; host or cells: CHO (CHO-AVPR1a, kept under G418 selection)
T1 sequence (P37288 whole entry): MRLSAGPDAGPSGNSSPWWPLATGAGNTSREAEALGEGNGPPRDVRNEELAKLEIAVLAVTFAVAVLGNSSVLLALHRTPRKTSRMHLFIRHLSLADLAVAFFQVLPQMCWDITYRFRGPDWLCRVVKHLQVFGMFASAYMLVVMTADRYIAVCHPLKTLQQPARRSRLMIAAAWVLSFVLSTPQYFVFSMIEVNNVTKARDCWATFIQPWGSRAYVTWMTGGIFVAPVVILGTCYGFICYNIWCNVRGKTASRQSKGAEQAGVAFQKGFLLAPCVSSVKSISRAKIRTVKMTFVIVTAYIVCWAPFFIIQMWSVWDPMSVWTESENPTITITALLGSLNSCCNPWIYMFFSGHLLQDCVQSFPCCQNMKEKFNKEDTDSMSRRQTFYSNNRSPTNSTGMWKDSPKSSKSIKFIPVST
Method: (§1) The purpose of this assay was to determine the inhibitory effect of synthesized compounds on the Vasopressin V1a receptor. The assay was performed in Chinese Hamster Ovary (CHO) cells expressing the human Arginine Vasopressin Receptor 1a (AVPR1a). Arginine Vasopressin (AVP) evokes an increase in intracellular calcium in CHO-AVPR1a cells which is measured in a fluorescence assay on the FLIPR^TETRA using calcium sensitive dyes. Test compounds were assessed for their ability to affect the magnitude of the response to AVP, with antagonists showing a concentration-dependent reduction in the AVP-mediated fluorescence. Compounds were tested in duplicate in a 10-point, 1:3 dilution series starting at a nominal concentration of 3 μM in the assay.
CHO-AVPR1a cells were maintained in routine culture in T175 Flasks at 37° C., 5% CO2. The growth medium consists of Ham's F12 media supplemented with 10% v/v fetal bovine serum, 1× non-essential amino acids, and 0.4 mg/ml Geneticin G418.
(§2) On day one, cells were harvested from T175 flasks when they are 80-90% confluent by first washing the cell monolayer with PBS and then dissociated using trypsin 0.05%/EDTA (3 mL for a T175 Flask). The flasks were incubated at room temperature until the cells detached. To the cell suspension, 10 ml of growth media was added and the cell density determined using the Vi-Cell automated cell counter. The cells were spun at 1000 rpm for 3 minutes, then the supernatant was carefully removed and discarded. The cell pellet was re-suspended at 6.0e^5 cells/ml in growth media. 25 μL of cells in growth media was dispensed into each well (15,000 cells per well) of a poly-D-lysine coated black, clear bottomed, 384-well plate. The plates were incubated at 37° C., 5% CO2 overnight.
(§3) At the start of each assay day, the potency of AVP was assessed and an EC80 concentration determined for subsequent compound profiling. Assays were performed using a two-step addition protocol on the FLIPR^TETRA; first addition of 5 μl of control or test compound at 10× final in assay buffer with 15 min incubation at 37° C., 5% CO2 followed by 10 μl of AVP at 6× final concentration in assay buffer. Changes in fluorescence were monitored for 3 min after both additions on the FLIPR^TETRA using 470-495 nm excitation and 515-575 nm emission wavelengths. The assay buffer consisted of HBSS (+Ca/+Mg) supplemented with 20 mM HEPES, and for the preparation of the AVP agonist only, 0.1% w/v bovine serum albumin. The assay was initiated by the removal of growth media from the cells and replacement with 45 μl of Calcium-6 dye (Molecular Devices) prepared at 1× in assay buffer. Cells were loaded with dye for 60-90 min at 37° C., 5% CO2 before initiation of the FLIPR^TETRA protocol. […] For compound profiling, test compounds were first serially diluted in DMSO (10-point curve, 1:3 dilutions) then diluted 33.3-fold in assay buffer prior to addition to the dye loaded cells on the FLIPR^TETRA. At the end of the incubation period, 10 μl of AVP in assay buffer containing 0.1% BSA was added at the previously determined EC80 concentration.
In-plate controls for the assay included balovaptan and PF-184563 concentration-response curves as reference V1a antagonists, and an AVP concentration-response curve to confirm the reproducibility of the EC80 used for the compound challenge.

[2] = biological target: T2, MDR1 (P-glycoprotein) (Homo sapiens, UniProt P08183); experiment: MDR1-MDCK permeability and efflux assay (Papp, efflux ratio, effective efflux ratio); type: in vitro ADME; conditions: dog; for Papp A→B at 1 h, 10 μM: pH 7.4, read-out: Papp AB MDR1
T2 construct: host or cells: MDCK (MDR1-MDCK; wild-type MDCK as comparator)
T2 sequence (P08183 whole entry): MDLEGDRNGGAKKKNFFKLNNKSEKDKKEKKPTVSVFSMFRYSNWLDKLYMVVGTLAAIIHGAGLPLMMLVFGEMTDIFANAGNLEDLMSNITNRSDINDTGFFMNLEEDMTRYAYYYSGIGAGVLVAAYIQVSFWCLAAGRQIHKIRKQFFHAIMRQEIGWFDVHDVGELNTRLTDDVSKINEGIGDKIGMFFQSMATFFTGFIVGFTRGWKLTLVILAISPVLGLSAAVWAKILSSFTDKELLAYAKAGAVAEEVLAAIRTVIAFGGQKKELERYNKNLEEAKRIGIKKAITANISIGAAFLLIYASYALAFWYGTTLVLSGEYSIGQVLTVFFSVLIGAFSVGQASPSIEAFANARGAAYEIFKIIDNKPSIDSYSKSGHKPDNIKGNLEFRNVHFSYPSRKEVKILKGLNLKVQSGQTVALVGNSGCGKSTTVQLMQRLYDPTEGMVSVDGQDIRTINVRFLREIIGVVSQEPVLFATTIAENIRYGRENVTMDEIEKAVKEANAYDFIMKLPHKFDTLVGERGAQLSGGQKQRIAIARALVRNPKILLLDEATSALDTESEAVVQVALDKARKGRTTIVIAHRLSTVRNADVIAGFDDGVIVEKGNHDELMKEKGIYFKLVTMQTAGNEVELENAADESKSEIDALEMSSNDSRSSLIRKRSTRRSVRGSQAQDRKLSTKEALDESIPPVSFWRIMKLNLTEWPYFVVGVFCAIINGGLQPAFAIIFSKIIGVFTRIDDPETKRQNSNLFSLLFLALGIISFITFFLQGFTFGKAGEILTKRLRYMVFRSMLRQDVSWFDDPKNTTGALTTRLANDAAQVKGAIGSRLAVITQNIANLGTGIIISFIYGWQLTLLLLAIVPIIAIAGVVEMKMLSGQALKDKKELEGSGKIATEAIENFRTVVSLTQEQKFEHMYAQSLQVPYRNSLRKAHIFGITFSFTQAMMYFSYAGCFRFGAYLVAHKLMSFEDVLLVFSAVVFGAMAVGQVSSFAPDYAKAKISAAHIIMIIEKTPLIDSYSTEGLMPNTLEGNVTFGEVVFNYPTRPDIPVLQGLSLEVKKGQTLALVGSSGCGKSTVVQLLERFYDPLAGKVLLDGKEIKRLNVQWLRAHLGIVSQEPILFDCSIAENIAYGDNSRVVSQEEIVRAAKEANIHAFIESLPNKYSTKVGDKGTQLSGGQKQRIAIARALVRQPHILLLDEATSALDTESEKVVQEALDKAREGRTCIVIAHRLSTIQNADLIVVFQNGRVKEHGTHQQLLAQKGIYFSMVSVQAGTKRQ
Method: (§4) The MDR1-MDCK effective efflux assay was performed as described in the BioFocus Standard Operating Procedure, ADME-SOP-56. Both wild-type (WT) and MDR1-MDCK cells (Solvo Biotechnology) were seeded onto 24-well Transwell plates at 2.35×10^5 cells per well and used in confluent monolayers after a 3 day culture at 37° C. under 5% CO2. For both cell types, test and control compounds (propranolol, vinblastine) were added (10 μM, 0.1% DMSO final, n=2) to donor compartments of the Transwell plate assembly in assay buffer (Hanks balanced salt solution supplemented with 25 mM HEPES, adjusted to pH 7.4) for both apical to basolateral (A>B) and basolateral to apical (B>A) measurements. Incubations were performed at 37° C., with samples removed from both donor and acceptor chambers at T=0 and 1 hour and compound analysed by mass spectrometry (LC-MS/MS) including an analytical internal standard.
(§5) Apparent permeability (Papp) values were determined from the relationship: Papp=[CompoundAcceptor T=end]×V Acceptor/([Compound Donor T=0]×V Donor)/incubation time×V Donor/Area×60×10^−6 cm/s
(§6) In this equation, V is the volume of each Transwell compartment (apical 125 μL, basolateral 600 μL), and concentrations are the relative MS responses for compound (normalized to internal standard) in the donor chamber before incubation and acceptor chamber at the end of the incubation, and Area is the area of cells exposed for drug transfer (0.33 cm^2).
(§7) Efflux ratios (Papp B>A/Papp A>B) were calculated for each compound from the mean Papp values in each direction for both wild-type and MDR1-MDCK cells.
(§8) In order to confirm the involvement of MDR1 in any efflux seen, an “effective efflux ratio” (EER) was calculated by comparing compound efflux ratios (ER) in the two cell types by the following equation: EER=ER(MDR1-MDCK)/ER(wild-type MDCK)
(§9) This ratio illustrates the effect of the over-expressed MDR1 normalised for the background movement of compound through the wild-type cells.
(§10) Lucifer Yellow (LY) was added to the apical buffer in all wells to assess viability of the cell layer. […] Recoveries<50% indicates compound solubility, stability or binding issues, thereby reducing the reliability of a result.
(§11) The inherent ability of a potential drug molecule to penetrate the blood brain barrier and avoid efflux by transporters expressed in the brain, can be roughly correlated with the Papp(A-B) and the efflux ratio (as defined above), respectively. A potential drug molecule with an apparent permeability<7 (10^−6 cm/sec) has low permeability (+), >7 (10^−6 cm/sec) but <10 (10^−6 cm/sec) has moderate permeability (++), >10 (10^−6 cm/sec) but <20 (10^−6 cm/sec) has good permeability (+++), and >20 (10^−6 cm/sec) is highly permeable (++++). High permeability in the WT and MDCK II cell permeability assay increases the probability of blood brain barrier penetration and access to the CNS. A potential drug molecule in the above assay system with an efflux ratio or effective efflux ratio of <1 has low probability of being an efflux substrate (++++), >1 but <2 has moderate probability of being an efflux substrate (+++), >2 but <3 has has an increased probability of being an efflux substrate (++), and >3 has a high probability of being an efflux substrate (+). If a potential drug molecule is an efflux substrate, the molecule will have a low probability of reaching exposures in the brain (site of action) that will result in efficacious levels of receptor occupancy.

[3] = Wild-type MDCK permeability and efflux assay (Papp, efflux ratio); type: in vitro ADME; conditions: dog, pH 7.4, wild-type MDCK cells; for efflux ratio at 1 h, 10 μM: Papp B>A/Papp A>B, read-out: ER WT (Efflux Ratio)
Method: as §4, §5, §6, §7, §8, §9, §10, §11

[4] = biological target: T3, human Arginine Vasopressin Receptor 1b (AVPR1b) (Homo sapiens, UniProt P47901); experiment: Vasopressin V1b receptor antagonist assay (FLIPR calcium, CHO-AVPR1b cells); type: cell-based
T3 construct: expressed in transfected cells; host or cells: CHO (CHO-AVPR1b, kept under G418 selection)
T3 sequence (P47901 1-424): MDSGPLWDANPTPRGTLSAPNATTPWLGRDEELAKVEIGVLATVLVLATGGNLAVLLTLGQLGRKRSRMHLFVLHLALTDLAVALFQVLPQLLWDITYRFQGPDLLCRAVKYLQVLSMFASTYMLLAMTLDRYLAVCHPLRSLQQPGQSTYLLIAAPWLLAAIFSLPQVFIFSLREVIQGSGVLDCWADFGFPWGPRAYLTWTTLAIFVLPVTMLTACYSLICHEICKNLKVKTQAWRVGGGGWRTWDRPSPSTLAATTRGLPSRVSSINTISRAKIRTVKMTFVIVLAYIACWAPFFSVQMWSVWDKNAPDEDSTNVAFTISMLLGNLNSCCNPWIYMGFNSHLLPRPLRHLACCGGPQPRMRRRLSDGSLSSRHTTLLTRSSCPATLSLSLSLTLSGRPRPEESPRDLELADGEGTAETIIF
Method: as §1, with “the” for “this”, “V1b” for “V1a”, “1b (AVPR1b).” for “1a (AVPR1a).”, “CHO-AVPR1b” for “CHO-AVPR1a”, “fluorescence.” for “fluorescence. Compounds were tested in duplicate in a 10-point, 1:3 dilution series starting at a nominal concentration of 3 μM in the assay.”
CHO-AVPR1b cells were maintained in routine culture in T175 Flasks at 37° C., 5% CO2. The growth medium consisted of Ham's F12 media supplemented with 10% v/v fetal bovine serum, 1× non-essential amino acids, and 0.4 mg/ml Geneticin G418.
as §2, with “Cells were” for “On day one, cells were”, “they were” for “they are”
as §3, with “period” for “period,”
In-plate controls for the assay included a Nelivaptan concentration-response curve as the reference V1b antagonist and an AVP concentration-response curve to confirm the reproducibility of the EC80 used for the compound challenge.

[5] = MDCK-MDR1, pH 7.4, ER(MDR1-MDCK)/ER(wild-type MDCK), read-out: EER (Effective Efflux Ratio)
[6] = MDCK-MDR1, pH 7.4, Papp B>A/Papp A>B, MDR1-MDCK cells, read-out: ER MDR1 (Efflux Ratio)

IC50 [1]	efflux ratio at 1 h, 10 μM [2, 5]	efflux ratio at 1 h, 10 μM [2, 6]	Papp A→B at 1 h, 10 μM ([2]; MDR1-MDCK cells)	Papp A→B at 1 h, 10 μM [3]	efflux ratio at 1 h, 10 μM [3]	IC50 [4]	Structure (SMILES)
≥ 1 µM	1 to 2	< 1	> 20 ×10⁻⁶ cm/s	> 20 ×10⁻⁶ cm/s	< 1		CC1COc2cc(Cl)ccc2N1C(=O)N1CC2(C1)CN(c1cc(C#N)ccn1)C2 (single isomer, unassigned) [20-6-A]
< 0.1 µM						≥ 1 µM	O=C(N1CC2(C1)CN(c1ncccc1F)C2)N1CCOc2cc(Cl)ccc21 [1-1, (7-chloro-2,3-dihydro-4H-benzo[b][1,4]oxazin-4-yl)(6-(3-fluoropyridin-2-yl)-2,6-diazaspiro[3.3]heptan-2-yl)methanone]
≥ 1 µM	1 to 2	< 1	> 20 ×10⁻⁶ cm/s	> 20 ×10⁻⁶ cm/s	< 1		CC1COc2cc(F)ccc2N1C(=O)N1CC2(C1)CN(c1ccc(F)cn1)C2 (single isomer, unassigned) [12-1-A]
< 0.1 µM	< 1	1 to 2	> 20 ×10⁻⁶ cm/s	> 20 ×10⁻⁶ cm/s	1 to 2		CC1COc2cc(F)ccc2N1C(=O)N1CC2(C1)CN(c1cc(C#N)ccn1)C2 (centres unmarked) [20-3]
< 0.1 µM							COC1CCN(C(=O)N2CC3(C2)CN(c2ccc(F)cn2)C3)c2ccc(Cl)cc21 (centres unmarked) [16-1, (6-chloro-4-methoxy-3,4-dihydroquinolin-1(2H)-yl)(6-(5-fluoropyridin-2-yl)-2,6-diazaspiro[3.3]heptan-2-yl)methanone]
0.1 to 0.5 µM							Cc1ccc(N2CC3(CN(C(=O)N4CCOc5cc(Cl)ccc54)C3)C2)nn1 [1-26]
< 0.1 µM							CC1(C)CCN(C(=O)N2CC3(C2)CN(c2ccc(F)cn2)C3)c2ccc(Cl)cc21 [9-9]
0.5 to 1 µM							Cc1ncccc1N1CC2(CN(C(=O)N3CCOc4cc(Cl)ccc43)C2)C1 [1-9]
0.1 to 0.5 µM							Cn1nccc1N1CC2(CN(C(=O)N3CCOc4cc(Cl)ccc43)C2)C1 [1-42]
< 0.1 µM							COc1cccnc1N1CC2(CN(C(=O)N3CCOc4cc(Cl)ccc43)C2)C1 [1-6]
